Ends that are not written are not given here.
Test system: Healthy Individual's Peripheral Blood Neutrophil
Assay: Inhibition of NET formation in neutrophils pretreated with lactoferrin-derived peptide fragment; DNA concentration in culture supernatant (Picogreen)
Type: cell-based
Details: human neutrophils, pretreatment with peptide
Method: Effect of Inhibiting NET Formation Stimulation of Healthy Individual's Peripheral Blood Neutrophil by Pretreatment with Lactoferrin-derived Peptide Fragment
For each round of experiment, 15 ml to 20 ml of peripheral blood was collected from a healthy individual by using an EDTA-containing syringe (with a needle of 18 to 22 G). After collecting the blood, in a 15 ml conical tube charged with 3 ml of Mono-Poly Resolving Medium (Cat No. DSBN100, DS Pharma Biochemical Co., Ltd.), 3.5 ml of the whole blood was gently layered over a lower layer of Mono-Poly Resolving Medium. The resultant 15 ml conical tube was centrifuged with a swing centrifuge at room temperature (15 to 30° C.) at 400×g for 20 minutes, and the conical tube was then gently taken out. An uppermost brown plasma layer and a lymphocyte/monocyte layer thereunder were removed with an aspirator or the like. In addition, a transparent layer under the lymphocyte/monocyte layer was removed as much as possible. A pale pink layer under the transparent layer was taken out with a Pasteur pipette, and transferred, for washing neutrophils, to a test tube charged with phosphate buffered saline (PBS(−); 137 mM of sodium chloride, 2.7 mM of potassium chloride, 8.1 mM of disodium hydrogen phosphate dodecahydrate, and 1.47 mM of potassium dihydrogen phosphate). The test tube thus holding the neutrophils was centrifuged at room temperature (15 to 30° C.) at 200×g for 10 minutes. The test tube was taken out, and a supernatant was discarded. To the neutrophils held in the test tube, sterile water at 4° C. was added, and the resultant was allowed to stand still on ice for 30 seconds for hemolyzing erythrocytes mixed therein. After the hemolysis, 45 ml of PBS(−) was added thereto, and the resultant was centrifuged at 200×g for 10 minutes. […]
A culture supernatant was collected, centrifuged at 200×g for 10 minutes, and the thus obtained supernatant was transferred to a fresh microcentrifuge tube. The amount of DNA was measured by using Picogreen dsDNA assay reagent (P11496 Invitrogen) in accordance with the accompanying protocol.

| Substance | inhibition of the NET (FIG. 2) (FIG. 2) | inhibition of the NET formation, dependence on amount (FIG. 3) |
| --- | --- | --- |
| SEQ ID NO: 6: Bovine lactoferricin; basic peptide obtained by pepsin hydrolysis of bovine lactoferrin, also prepared by PH Japan (MFKCRRWQWRMKKLGAPSITCVRRAF; ends and bridges not checked; cysteine pairing not given here; listed as Bos taurus) | found to have the inhibiting effect | inhibited the NET formation in a volume-dependent manner |
| SEQ ID NO: 7: Human lactoferricin, basic peptide prepared by PH Japan (GRRRRSVQWCAVSQPEATKCFQWQRNMRKVRGPPVSCIKRDSPIQCIQA; listed as Homo sapiens) |  | inhibited the NET formation in a volume-dependent manner |

Source: patent US20170296629A1, “INHIBITOR OF EXTRACELLULAR TRAP FORMATION IN LEUKOCYTE” (KEIO UNIVERSITY, priority 2014, published 2017)
